Consider eight compounds from patent publication US6251940A, “Inflammatory cell inhibitors” (British Biotech Pharmaceuticals Ltd., priority 1998, dated 2001).

Assay [1] concerns Human PBMCs. Kind of assay: Inhibition of mitogen (PWM)-induced lymphocyte proliferation of PBMCs. It is filed as cell-based. The conditions noted are these: PBMC, PWM 2.5 μg/ml, 48 hrs, tritiated thymidine, read-out: IC50, PBMCs stimulated with PWM. How it is done: Inhibition of Mitogen-induced Lymphocyte Proliferation
The compounds of examples 1, 2, 3, 6, 19, 39, 40 and 43 above were tested for their effects on the proliferation of peripheral blood mononuclear cells (PBMCs) in vitro. The PBMCs were activated with Pokeweed mitogen (PWM), a potent activator of lymphocytes and monocytes which leads to B and T lymphocyte proliferation.
Human PBMCs (2×10^4 cells/well), purified from whole blood by centrifugation through ficoll/hypaque, were incubated with PWM (2.5 μg/ml) and compounds 1 and 2 at a range of dilutions in 96 well microtitre plates for 48 hrs at 37° C. in a 5% CO2 incubator. DMSO was run in each assay as a vehicle control. 0.5 μCuries of tritiated thymidine in 40 μl (Amersham) were added to each well during the final 18 hrs. The cells were then harvested on glass fibre pads using a Tomtech cell harvester and, after adding scintillant to the pad (Meltilex) they were placed in a Wallac MicroBeta plate counter. The results obtained are in counts per minute and reflect the level of tritiated thymidine incorporation into the cells and therefore the level of cell proliferation. The percentage proliferation in test wells compared to control wells was calculated and the inhibition curves plotted. The IC50 values were calculated from the inhibition curves.

The test system of assay [2] is Human PBMCs. Kind of assay: Inhibition of anti-CD3-induced T lymphocyte proliferation of PBMCs. It is filed as cell-based. The following applies: 48 hrs; for Inhibition of cell proliferation (in words), anti-CD3: range of dilutions. How it is done: Inhibition of Anti-CD3-induced T Lymphocyte Activation and Proliferation
(§1) The compounds of examples 1, 6, 19, 39, 40 and 43 above were tested for its effects on anti-CD3-driven proliferation of peripheral blood mononuclear cells (PBMCs) in vitro. The PBMCs were activated with anti-CD3 antibody which directly activates T lymphocytes via the T cell receptor CD3 component, although other cells do contribute to T cell proliferation by co-stimulation and growth factor production. Human PBMCs (5×10^4cells/well), purified from whole blood by centrifugation through ficoll/hypaque, were incubated in monoclonal anti-CD3 antibody-coated wells (5 μg/ml) and compound 1 at a range of dilutions in a 96 well microtitre plate for 48 hrs at 37° C. in a 5% CO2 incubator. DMSO was run in each assay as a vehicle control. 0.5 μCuries of tritiated thymidine in 40 μl (Amersham) were added to each well during the final 18 hrs. The cells were then harvested on glass fibre pads using a Tomtech cell harvester and, after adding scintillant to the pad (Meltilex) they were placed in a Wallac MicroBeta plate counter. The results obtained are in counts per minute and reflect the level of tritiated thymidine incorporation into the cells and therefore the level of cell proliferation. The percentage proliferation in test wells compared to control wells was calculated. The results were plotted and the IC50 value calculated.

For the next assay, the system named is CD69. Kind of assay: CD69 expression on T cells activated by anti-CD3 (FACS). It is filed as cell-based, Human. The following applies: 4 hrs treatment; untreated cells 68%. How it is done: as §1, with “The results obtained are in counts per minute and reflect the level of tritiated thymidine incorporation into the cells and therefore the level of cell proliferation.” left out
CD69 is a membrane marker of T cell activation. The level of CD69 expression on the membranes of T cells activated by anti-CD3 was therefore measured by fluorescence activated cell (FACS) flow cytometry.

The test system of assay [3] is Human PBMCs. Kind of assay: Inhibition of antigen (PPD)-induced T lymphocyte proliferation of PBMCs. The assay is classed as cell-based. The conditions noted are these: PBMC, PPD 1 μg/ml, 72 hrs, tritiated thymidine, read-out: IC50, PBMCs stimulated with PPD.
Assay [4] relates to TNF. Kind of assay: Inhibition of production of TNF, PPD-activated PBMCs (ELISA). The conditions noted are these: 48 hrs. The assay is classed as cell-based, Human. How it is done: (§2) Inhibition of Production of TNF
(§3) The compound of example 3 above was tested for its effect on the production of the pro-inflammatory cytokine TNF. TNF is released from various cells (monocytes and B lymphocytes) following activation by mitogen or antigen. The production of this inflammatory mediator in the supernatant of activated PBMCs was measured by ELISA.
(§4) Human PBMCs (2-5×10^6 cells/well), purified from whole blood by centrifugation through ficoll/hypaque, were incubated with either PWM (2.5 μg/ml) or PPD (1 μg/ml) and compound example 3 at 10 μM in a 24 well microtitre plates for 48 hrs at 37° C. in a CO2 incubator. DMSO was run in each assay as a vehicle control. Supernatant was removed after 48 hrs and microfuged at 10,000 rpm for 2 minutes. Supematant was removed, aliquotted and stored at -70° C. until tested.
For orientation: ELISA stands for enzyme-linked immunosorbent assay.

For assay [5], the system named is TNF. Kind of assay: Inhibition of production of TNF, PWM-activated PBMCs (ELISA). It is filed as cell-based, Human. The following applies: 48 hrs. How it is done: as §2, §3, §4
The subject of a further assay is TNF alpha. Kind of assay: Inhibition of TNF production in PWM-activated whole blood. The conditions noted are these: 10 μM, PWM-activated whole blood diluted 1/5, 24 hours; for TNF alpha: vehicle 1031 pg/ml. It is filed as cell-based. On the procedure: as §4
In a modification of the above procedure, the compounds of Examples 19 and 40 were tested at 10 μM for inhibition of TNF production in PWM-activated whole blood diluted 1/5 in RPMI containing 1% nutridoma. The supernatants were tested after 24 hours of culture.

Assay [6] concerns Experimental Autoimmune Neuritis. Kind of assay: Experimental Autoimmune Neuritis animal model. The assay is classed as in vivo, Male Lewis rats. The conditions noted are these: 100 mg.kg^-1 ip uid, day 1 to 14; day 15 post-inoculation; groups of 9.

Structures are written as SMILES.

Usually IC50 stands for the point on the concentration scale where inhibition reaches its midpoint.

Consider `C=CC[C@H](C(=O)NO)[C@@H](CC(C)C)C(=O)N[C@@H](Cc1ccccc1)C(=O)OC` [Example 1, 2S-(3S-Hydroxycarbamoyl-2R-isobutyl-hex-5-enoylamino)-3-phenylpropionic acid methyl ester], for which the IC50 in the assay on Human PBMCs [1] came to 4.7 µM; in the assay on Human PBMCs [2] (Homo sapiens, PBMC, anti-CD3 antibody-coated wells 5 μg/ml, tritiated thymidine, read-out: IC50, PBMCs stimulated with ANTI-CD3) it was 2.1 µM; in the assay with Human PBMCs [3] it was 2 µM. The “Inhibition of cell proliferation (in words), anti-CD3” value (shortened to “Inhibition of cell proliferation”) in the assay with Human PBMCs [2] is recorded as “inhibited cell proliferation in a dose related fashion”. Besides, in the assay on CD69, the “expression of CD69 (% of T cells)” value came to 48%.

In the case of `C=CC[C@H](C(=O)NO)[C@@H](CC(C)C)C(=O)N[C@@H](Cc1ccccc1)C(=O)OCC` [Example 2, 2S-(3S-Hydroxycarbamoyl-2R-isobutyl-hex-5-enoylamino)-3-phenylpropionic acid ethyl ester], the IC50 in the assay on Human PBMCs [1] came out at 4.8 µM.

Consider `C=CC[C@H](C(=O)NO)[C@@H](CC(C)C)C(=O)N[C@@H](Cc1ccccc1)C(=O)OC(C)C` [Example 3, 2S-(3S-Hydroxycarbamoyl-2R-isobutyl-hex-5-enoylamino)-3-phenylpropionic acid isopropyl ester], for which the IC50 in the assay with Human PBMCs [1] came to 2.4 µM; in the assay with Human PBMCs [3], 1.8 µM. In the assay on TNF [4] (10 μM, dmso 50 pg/ml), the “TNF, ACTIVATED PPD” value turned out to be 15 pg/mL. For the same compound, the inhibition at 10 µM is 70% in the assay with TNF [4] (Homo sapiens, PBMC, versus dmso, read-out: reduction of the level of TNF production, PPD system) and 64% with TNF [5] (Homo sapiens, PBMC, versus dmso, read-out: reduction of the level of TNF production, PWM system). In addition, the “TNF, ACTIVATED PWM” value in the assay on TNF [5] (10 μM, dmso 1390 pg/ml) came to 495 pg/mL.

Consider `CC(C)C[C@H](CC(=O)NO)C(=O)N[C@@H](Cc1ccccc1)C(=O)OC(C)C` [Example 6, 2S-(2R-Hydroxycarbamoylmethyl-4-methyl-pentanoylamino)-3-phenyl-propionic acid isopropyl ester], for which the “Inhibition of cell proliferation” value with Human PBMCs [2] is on record as “inhibited cell proliferation in a dose related fashion”.

With `C=CC[C@H](C(=O)NO)[C@@H](CC(C)C)C(=O)N[C@@H](Cc1ccccc1)C(=O)OC1CCCC1` [Example 19, 2S-(3S-Hydroxycarbamoyl-2R-isobutyl-hex-5-enoylamino)-3-phenylpropionic acid cyclopentyl ester], in the assay on TNF alpha, the “TNF production (in words)” value was “reduced the level of TNF production” and the TNF alpha is 489 pg/mL. Moreover, the “reduction in mean clinical score compared to vehicle group” value in assay [6] is on record as 93%. The “Inhibition of cell proliferation” value in the assay with Human PBMCs [2] is “inhibited cell proliferation in a dose related fashion”. In addition, the IC50 in the assay with Human PBMCs [3] came to 1.1 µM.

As for `C=CC[C@H](C(=O)NO)[C@@H](CC(C)C)C(=O)N[C@@H](COC(C)(C)C)C(=O)OC1CCCC1` [Example 39, 3-tert-Butoxy-2S-(3S-hydroxycarbamoyl-2R-isobutyl-hex-5-enoylamino)-propionic acid cyclopentyl ester], the “Inhibition of cell proliferation” value in the assay with Human PBMCs [2] is listed as “inhibited cell proliferation in a dose related fashion”.

As for `C=CC[C@H](C(=O)NO)[C@@H](CC(C)C)C(=O)N[C@H](C(=O)OC1CCCC1)c1ccccc1` [Example 40, 2S-(3S-Hydroxycarbamoyl-2R-isobutyl-hex-5-enoylamino)-2-phenylethanoic acid cyclopentyl ester], in the assay on TNF alpha, the “TNF production (in words)” value is “reduced the level of TNF production” and the TNF alpha stood at 600 pg/mL. Moreover, the “Inhibition of cell proliferation” value in the assay on Human PBMCs [2] is given as “inhibited cell proliferation in a dose related fashion”.

As to `CC(C)C[C@@H](C(=O)NC(C(=O)OC1CCCC1)c1ccccc1)[C@H](O)C(=O)NO` (stereo partly drawn) [Example 43, 2-[2R-(S-Hydroxy-hydroxycarbamoyl-methyl)-4-methyl-pentanoylamine]-2-phenyl-ethanoic acid cyclopentyl ester], in the assay on Human PBMCs [2], the “Inhibition of cell proliferation” value is given as “inhibited cell proliferation in a dose related fashion”.
